The nature of data set [1]: Kinetics of oxidation of the dihydro derivatives in whole blood. It counts as in vitro ADME, human. The conditions noted are these: 37°C; for half-life: human. The method, then: In Whole Blood: In each of 5 tubes, 0.1 ml of 10 x 10-^4 M methanolic solution of the freshly prepared dihydro derivative, was added 2 ml of fresh heparinized whole human blood and the tubes were kept at 37°C in a water bath. At the end of the time period to be investigated, 8 ml of acetonitrile was added, shaken vigorously and centrifuged. The extension of the supernatant solution at 350 nm was measured. A reference sample was made by addition of 0.1 ml of methyl alcohol instead of the sample solution following the same procedure.

A short description of data set [2]: Chemical oxidation by hydrogen peroxide and silver nitrate. Type of data set: physicochemical. Conditions: 30% H2O2, UV spectrum. On the procedure:
The stability of the 1,4-dihydropyridine derivatives (5) was determined in the presence of the oxidizing agents, alcoholic AgN03 and hydrogen peroxide. The in vitro rates of oxidation of the 1,4-dihydropyridine derivative (5c) in 80% plasma, 20% brain homogenate, 20% liver homogenate and in whole blood were determined.
To 10 ml of 30% H202 was added 0.2 g of the dihydropyridine derivative (products of Examples 5 or 8). The mixture was stirred and samples were taken to check the UV spectrum.
To 5 ml of saturated methanolic AgN03 solution was added 1 ml of 5% methanolic solution of the dihydropyridine derivative. The mixture was shaken and left for 5 min for complete precipitation of silver, centrifuged and an aliquot was taken to check the UV spectrum. Complete oxidation to the quaternary salts was observed.

A short description of data set [3]: Kinetics of oxidation of the dihydro derivatives in brain homogenate. It counts as in vitro ADME, rat. Conditions: pH 7.4, 37°C; for half-life: rat. The method, then: In Brain Homogenate: 2.0 g of rat brain tissue were homogenized in 10 ml of phosphate buffer, pH 7.4. The homogenate was centrifuged for 15 min at 3000 rpm, decanted, heated in a water bath at 50°C for 5 min and then centrifuged again. The supernatant solution was diluted to 100 ml with phosphate buffer, pH 7.4.
Reference Sample: 0.2 ml of methyl alcohol was diluted to 10 ml with the brain homogenate solution, and the solution was used to record the base line on Cary 219 spectrophotometer and as a reference for the dihydro derivative sample solution.
Dihydro Derivative Sample Solutions: 0.2 ml of 6.25 x 10-^4 M methanolic solution of the freshly prepared dihydro derivative was diluted to 10 ml with the brain homogenate solution. The mixture was scanned at 37 ° C from 400 nm to 300 nm every 10 min for 2 hrs on […] spectrophotometer.

In data set [4] the target is T1, COMT (catechol-O-methyltransferase) (Rattus norvegicus, UniProt P22734).
T1 construct: from tissue; host or cells: rat brain homogenate (20%), rat liver homogenate (20%); also 80% plasma and whole citrated blood
T1 sequence (P22734 1-264): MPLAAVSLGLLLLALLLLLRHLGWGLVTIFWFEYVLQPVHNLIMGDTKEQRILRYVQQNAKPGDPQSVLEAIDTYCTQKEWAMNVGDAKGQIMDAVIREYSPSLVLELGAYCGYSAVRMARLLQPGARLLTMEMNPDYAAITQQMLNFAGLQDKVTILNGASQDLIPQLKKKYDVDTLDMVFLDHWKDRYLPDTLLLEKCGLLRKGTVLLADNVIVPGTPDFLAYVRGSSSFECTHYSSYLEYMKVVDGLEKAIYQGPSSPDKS
Kind of data set: O-methyl metabolite formation by COMT in biological fluids. Conditions: no methoxy derivatives detected in any of the biological fluids studied. It counts as in vitro ADME. The method, then:
In an attempt to ascertain whether any biotransformation of the free catechol is taking place by COMT (catechol-O-methyltransferase) either before or after oxidation, the possible O-methyl metabolites (9 and 10) were synthesized separately following Scheme 4 with 3-methoxytyramine hydrochloride as the starting material. [drawing 52] [drawing 53]
Figures 1-4 illustrate the results of such an investigation. The apparent half-lives for the disappearance of 5c in biological fluids at 37°C were calculated. […] The obtained values, 51 min (80% plasma), 17 min (20% brain homogenate), 18 min (whole citrated blood) and 6 min (20% liver homogenate), reflect an acceptable stability of the dihydro derivative 5c. The disappearance of 5c is accompanied by formation of some monoester (11) and dihydroxy dihydro form (5a) in all the media except the liver homogenate. The rate of hydrolysis of the first ester moiety is faster than the second and a reasonable amount of monoester 11 builds up with time. […] Thus, it is established that this derivative, 6a, is forming as the main product of the various interconversion routes and it is the direct precursor thus concluded to be locked in the brain in the in vivo experiment.

Data set [5] in a line: Lability of the catechol esters to hydrolysis. The conditions noted are these: diacetyl derivatives. It counts as physicochemical. From the text: Attempts to prepare 7 by using dopamine free base were largely unsuccessful. As for the catechol protecting groups, the acetyl and pivalyl moieties were selected due to their rather different steric and partitioning parameters. Acylation could be accomplished with the acyl chlorides by using conventional methods. Reduction of the quaternaries (6a-c and 9) was accomplished by using sodium dithionite in mildly basic aqueous solution, (NaHC03). It was observed that the dihydro compound obtained in the case of the quaternary 6b gave a faint green color with ferric ions, indicating partial hydrolysis of at least one of the acetyl moieties during reduction, even in the cold, weakly basic solution used as a medium. The dihydropyridine derivatives isolated (5a-c and 10) were determined to have the expected 1,4-dihydropyridine structure, based on their NMR and UV spectra.
The dipivalyldihydro derivative (5c) was thoroughly investigated for its in vitro rates of disappearance and metabolic degradation in various biological fluids. It is evident that 5c represents a rather complex case, as besides oxidation, a two-step hydrolysis will also take place. Scheme 5 illustrates the interconversion of the possible components. [drawing 54]

Data set [6] has as its system serum prolactin. Kind of data set: In vivo effect on pituitary prolactin secretion (17-β-estradiol primed male rats). The conditions noted are these: I.V. 1 mg/kg. From the text: Adult male rats (Charles Rivers, CD-1) weighing 200 to 225 g were provided food and water ad libitum for at least one week period to experimentation. To elevate serum prolactin levels, each rat received a single s.c. implant of a Silastic tube (1.57 mm interior diameter, 5 mm x 3.15 mm overall size) packed with crystalline 17-,8-estradiol. Two days later the rats were lightly anesthetized with ether and a small incision was made over the right jugular vein for intravenous (LV.) administration of the test drugs. Compound 6a was injected at a dose of 1 mg/kg body weight/ml saline and groups of six rats were decapitated at 15, 30, 60 and 120 min later to collect blood samples. Control rats (time 0) received an I.V. injection of the saline vehicle and were decapitated 30 min later. Compound 5c was dissolved in 10% ethanol in saline and was injected IV. Rats were decapitated at 15, 30 and 120 min later. Control (time 0) animals received the 10% ethanol vehicle and were sampled 30 min later.
Trunk blood was collected, allowed to clot for 2h and the serum was separated and stored at -20 ° C for subsequent assay for prolactin concentrations. Each serum sample was assayed in duplicate by the doubleantibody radioimmunoassay procedure described by the National Pituitary Agency Hormone Distribution Program. Serum prolactin concentrations are expressed in terms of the PRL-RP-2 reference preparation provided. The intraassay coefficient of variation for 10 replicate samples of pooled serum obtained from male rats was 13.8%.
The effects of compounds 5c and 6a on serum prolactin concentrations were evaluated by one-way analysis of variance and Student-Newman Keuls tests. A probability level of less than 0.05 was selected for significance. See FIGURE 7 and the discussion thereof hereinabove.

Data set [7] has as its system anterior pituitary (AP). Nature of the data set: In vitro evaluation of the prolactin inhibitory effect on incubated anterior pituitaries. Type of data set: cell-based, rats. Conditions: for Prolactin release rate of the incubated AP-S: 37°C, average of 9 separate AP-S. The method, then:
Adult female rats (Charles Rivers Lab.) weighing 225-250 g were maintained on food and water ad libitum. Animals were sacrificed by decapitation; their pituitary glands were quickly removed from the cranium. The anterior pituitary (AP) of each animal was dissected into two equal halves and placed into incubation media. (Gibco's Minimal Essential Media supplied by Grand Island Biological Co. was used.) The incubation was conducted at 37 °C, under continuous aeration (95% 02, 5% C02); the pH was 7.2. After one hour of preincubation, the media were discarded and replaced with fresh ones containing either DA ( 2 x 10-^8 M), 6a ( 2 x 10-^8) or ascorbic acid (10-^4 M). In all cases, one-half of AP received the test drug; the other, the ascorbate control. After one hour, samples were taken from the media and the remaining media were discarded. […] One hour later, the second samples were taken After the 3 h incubation period, each half AP's were weighed. The samples were diluted 1:50 with phosphate buffered saline and then assayed in triplicate by the radioimmunoassay method described. The data are given as ng prolactin released/mg wet weight/h. Paired Student's T-test was used to evaluate the significance of the inhibitory effects of the test drugs on prolactin secretion The control AP half and the drug treated half were employed in each paired comparison. See TABLE I and the discussion thereof hereinabove.

The conditions of data set [8]: cited from earlier work.

Structures are written as SMILES.

What is called half-life is the time needed for the level to fall by half in the phase considered. As for `CN1C=C(C(=O)NCCc2ccccc2)CC(C(=O)NCCc2ccccc2)=C1` [1-Methyl-3,5-di(N-β-phenethyl)carbamoyl-1,4-dihydropyridine], the “Kinetics of Oxidation (rate constant)” value in data set [1] is reported as 4.9 x 10^-5 n=5 r=.949; in data set [3], 8.4 x 10^-6 n=6 r=.997. Besides, the half-life was 3.9 h in data set [1] (unit inferred) and 22.9 h in data set [3] (unit inferred). The “Oxidation by Hydrogen Peroxide” value in data set [2] is given as “Complete oxidation to the corresponding quaternary salts”.

For the compound `CCOC(=O)C1=CN(C)C=C(C(=O)NCCc2ccccc2)C1` [5-Carboethoxy-1-methyl-3-(N-β-phenethyl)carbamoyl-1,4-dihydropyridine], the entries for the “Kinetics of Oxidation (rate constant)” value in data set [1] and in data set [3] were 1.13 x 10^-4 n=5 r=.972 and 1.74 x 10^-5 n=6 r=.993, respectively. Moreover, the half-life in data set [1] is 1.7 h; in data set [3], 11.1 h. Besides, the “Oxidation by Hydrogen Peroxide” value in data set [2] is on record as “Complete oxidation to the corresponding quaternary salts”.

For the compound `CN1C=CCC(C(=O)NCCc2ccc(O)c(O)c2)=C1` [5a, 1-Methyl-3-{N-[β-(3,4-dihydroxyphenyl)-ethyl]}carbamoyl-1,4-dihydropyridine], the “substrate for COMT” value in data set [4] is recorded as “do not appear to be good substrates for COMT”.

Turning to `CC(=O)Oc1ccc(CCNC(=O)C2=CN(C)C=CC2)cc1OC(C)=O` [5b, 1-Methyl-3-(N-[6-(3,4-diacetoxyphenyl)-ethyl]}carbamoyl-1,4-dihydropyridine], the lability to hydrolysis entry in data set [5] is reported as “labile to hydrolysis”.

As to `C[n+]1cccc(C(=O)NCCc2ccc(O)c(O)c2)c1` [6a], the “serum prolactin levels versus vehicle injected controls” value in data set [6] (by 60 and 120 min) is “not significantly different from vehicle injected controls”. The “effect on the serum prolactin concentrations” value in data set [6] (by 15 min) is listed as “no significant effect”. In data set [6] (by 30 min), the “reduction of serum prolactin concentrations” value was 67%. Moreover, in data set [7] (2x10-^7 M), the “reduction of the prolactin rate secretion” value is listed as “no effect”. In data set [7] (2x10^-7M), the “Prolactin release rate of the incubated AP-S” value (shortened to “Prolactin release rate”) came out at 277±32 ng/mg. h. Moreover, in data set [7] (2x10^-8M), the “effect on the rate of release of prolactin” value is “neither DA nor 6a had any effect” and the “Prolactin release rate” value is 386±29 ng/mg. h. For the same compound, in data set [4], the “substrate for COMT” value is recorded as “do not appear to be good substrates for COMT”.

Consider `CC(=O)Oc1ccc(CCNC(=O)c2ccc[n+](C)c2)cc1OC(C)=O` [6b, 1-Methyl-3-{N-[β-(3,4-diacetoxy-phenyl)ethyl]} carbamoyl-pyridinium iodide], for which the lability to hydrolysis result in data set [5] is given as “labile to hydrolysis”.

As to `NCCc1ccc(O)c(O)c1` [DA, dopamine, reference compound], in data set [7] (2x10^-7M), the “Prolactin release rate” value was 121±38 ng/mg. h. Also, in data set [7] (2x10^-8M), the “effect on the rate of release of prolactin” value is listed as “neither DA nor 6a had any effect” and the “Prolactin release rate” value was 355±67 ng/mg. h. In addition, the inhibition at 0.2 µM in data set [7] (Rattus norvegicus, 1 h, 2x10-^7 M, read-out: reduction of the prolactin rate secretion) is 57%.

Turning to `CCCC(CCC)C(=O)[O-].[Na+]` [sodium valproate], the “level in the blood needed to achieve the required activity” value in data set [8] is 50 to 100 µg/mL.
